Reference: the NIST ThermoML archive (doi:10.1016/j.fluid.2009.08.017)
Numbers after ± are expanded uncertainties.

Assay: activity coefficient (dimensionless); of the first substance listed, at infinite dilution; xn = mol fraction of the nth substance listed
Settings: 101 kPa, Liquid, Chromatography, x1 = 0

| Structure (SMILES) | activity coefficient (298.15 K) | activity coefficient (308.15 K) | activity coefficient (318.15 K) | activity coefficient (328.15 K) | activity coefficient (338.15 K) | activity coefficient (348.15 K) | activity coefficient (358.15 K) | activity coefficient (368.15 K) |
| --- | --- | --- | --- | --- | --- | --- | --- | --- |
| CCCCCC [hexane] + CCCCCCOCn1cc[n+](C)c1.O=S(=O)([N-]S(=O)(=O)C(F)(F)F)C(F)(F)F | 8.36 ± 0.57 | 7.96 ± 0.54 | 7.59 ± 0.52 | 7.27 ± 0.5 | 6.98 ± 0.48 | 6.71 ± 0.46 | 6.46 ± 0.44 | 6.24 ± 0.43 |
| C=CCCCCC [1-heptene] + CCCCCCOCn1cc[n+](C)c1.O=S(=O)([N-]S(=O)(=O)C(F)(F)F)C(F)(F)F | 6.16 ± 0.42 | 5.96 ± 0.41 | 5.79 ± 0.39 | 5.61 ± 0.38 | 5.44 ± 0.37 | 5.3 ± 0.36 | 5.18 ± 0.35 | 5.05 ± 0.34 |
| C#CCCCC [1-hexyne] + CCCCCCOCn1cc[n+](COCCCCCC)c1.O=S(=O)([N-]S(=O)(=O)C(F)(F)F)C(F)(F)F | 1.16 ± 0.074 | 1.17 ± 0.075 | 1.17 ± 0.075 | 1.18 ± 0.075 | 1.18 ± 0.076 | 1.19 ± 0.076 | 1.19 ± 0.076 | 1.19 ± 0.076 |
| CCCCCCCCC [nonane] + CCCCCCOCn1cc[n+](COCCCCCC)c1.O=S(=O)([N-]S(=O)(=O)C(F)(F)F)C(F)(F)F | 5.93 ± 0.4 | 5.67 ± 0.39 | 5.42 ± 0.37 | 5.22 ± 0.36 | 5.01 ± 0.34 | 4.84 ± 0.33 | 4.68 ± 0.32 | 4.53 ± 0.31 |
| Cc1ccccc1C [1,2-dimethylbenzene] + CCCCCCOCn1cc[n+](COCCCCCC)c1.O=S(=O)([N-]S(=O)(=O)C(F)(F)F)C(F)(F)F |  |  | 0.89 ± 0.057 | 0.891 ± 0.057 | 0.892 ± 0.057 | 0.894 ± 0.057 | 0.895 ± 0.057 | 0.896 ± 0.057 |
| C=CCCCCCC [oct-1-ene] + CCCCCCOCn1cc[n+](COCCCCCC)c1.O=S(=O)([N-]S(=O)(=O)C(F)(F)F)C(F)(F)F | 3.28 ± 0.22 | 3.2 ± 0.22 | 3.12 ± 0.21 | 3.05 ± 0.21 | 2.99 ± 0.2 | 2.93 ± 0.2 | 2.87 ± 0.2 | 2.83 ± 0.19 |
| C=CCCCC [hex-1-ene] + CCCCCCOCn1cc[n+](COCCCCCC)c1.O=S(=O)([N-]S(=O)(=O)C(F)(F)F)C(F)(F)F | 2.25 ± 0.15 | 2.2 ± 0.15 | 2.15 ± 0.15 | 2.11 ± 0.14 | 2.07 ± 0.14 | 2.04 ± 0.14 | 2.01 ± 0.14 | 1.97 ± 0.13 |
